Among the data in ChEMBL document CHEMBL1909046, “DrugMatrix in vitro pharmacology data” are IC50 and Ki values, retold here.

One series has as its target T1, Adenosine receptor A1 (Homo sapiens, UniProt P30542).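 Also: radioligand binding assay at the adenosine A1 receptor, with DPCPX serving as the labelled ligand; in other assays of this panel Not Active means under 50% inhibition at 10 µM.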
T1 sequence (P30542 whole entry): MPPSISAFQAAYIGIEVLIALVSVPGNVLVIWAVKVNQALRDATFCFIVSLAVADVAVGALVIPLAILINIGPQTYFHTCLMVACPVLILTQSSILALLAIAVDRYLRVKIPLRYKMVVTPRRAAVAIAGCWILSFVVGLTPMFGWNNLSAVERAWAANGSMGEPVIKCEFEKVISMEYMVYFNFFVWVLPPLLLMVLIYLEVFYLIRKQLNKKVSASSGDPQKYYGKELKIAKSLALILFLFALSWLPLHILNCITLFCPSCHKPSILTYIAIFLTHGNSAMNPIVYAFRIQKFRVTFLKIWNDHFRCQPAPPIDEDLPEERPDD
Format: cell membranes, Membrane. To be noted: cho.

Series [1] has as its target Sigma non-opioid intracellular receptor 1 (Homo sapiens, UniProt Q99720). Nature of the series: DRUGMATRIX: Sigma1 radioligand binding (ligand: [3H] Haloperidol). As to conditions: jurkat; Not Active = under 50% inhibition at 10 µM. The class given is cell membranes, Jurkat, Membrane.
Series [2] addresses Kappa-type opioid receptor (Homo sapiens, UniProt P41145). Nature of the series: DRUGMATRIX: Opiate kappa (OP2, KOP) radioligand binding (ligand: [3H] Diprenorphine). To be noted: hek293; Not Active = under 50% inhibition at 10 µM. Format: cell membranes, HEK293, Membrane.
In another series the target is Cytochrome P450 2D6 (Homo sapiens, UniProt P10635). As to conditions: bti-tn-5b1-4. Also: in other assays of this panel Not Active means under 50% inhibition at 10 µM.
The target in a further series is T2, Cytochrome P450 1A2 (Homo sapiens, UniProt P05177). Also: in other assays of this panel Not Active means under 50% inhibition at 10 µM.
T2 sequence (P05177 whole entry): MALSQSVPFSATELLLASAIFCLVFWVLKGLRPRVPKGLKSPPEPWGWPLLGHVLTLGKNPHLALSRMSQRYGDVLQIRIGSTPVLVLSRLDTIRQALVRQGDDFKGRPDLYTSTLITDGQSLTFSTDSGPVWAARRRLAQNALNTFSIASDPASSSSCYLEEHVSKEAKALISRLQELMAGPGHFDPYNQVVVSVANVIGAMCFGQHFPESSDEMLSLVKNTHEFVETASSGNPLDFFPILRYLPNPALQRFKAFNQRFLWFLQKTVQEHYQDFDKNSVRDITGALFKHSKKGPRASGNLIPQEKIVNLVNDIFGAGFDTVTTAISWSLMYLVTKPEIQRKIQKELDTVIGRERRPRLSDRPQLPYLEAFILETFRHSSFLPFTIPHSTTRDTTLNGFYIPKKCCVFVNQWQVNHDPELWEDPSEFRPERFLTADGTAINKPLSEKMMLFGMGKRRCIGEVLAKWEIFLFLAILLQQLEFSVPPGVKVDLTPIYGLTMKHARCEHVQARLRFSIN
As to conditions: bti-tn-5b1-4.

Series [3] is described as follows: DRUGMATRIX: Glutamate, Kainate radioligand binding (ligand: [3H] Kainic acid). The class given is cell membranes, Rattus norvegicus, Wistar, Brain, Membrane. As to conditions: Not Active = under 50% inhibition at 10 µM.
Series [4] in a line: DRUGMATRIX: Calcium Channel Type L, Dihydropyridine radioligand binding (ligand: [3H] Nitrendipine). The class given is cell membranes, Rattus norvegicus, Wistar, Cerebral cortex, Membrane. As to conditions: Not Active = under 50% inhibition at 10 µM.

Molecules are shown by their SMILES. pIC50, pKi: −log10 of the molar value.

The term pIC50 denotes the negative decadic logarithm of the IC50, by convention in mol/L. As usually defined, the pKi is the negative decadic logarithm of the Ki, by convention in mol/L.

Sequence of Sigma non-opioid intracellular receptor 1 (Q99720 whole entry): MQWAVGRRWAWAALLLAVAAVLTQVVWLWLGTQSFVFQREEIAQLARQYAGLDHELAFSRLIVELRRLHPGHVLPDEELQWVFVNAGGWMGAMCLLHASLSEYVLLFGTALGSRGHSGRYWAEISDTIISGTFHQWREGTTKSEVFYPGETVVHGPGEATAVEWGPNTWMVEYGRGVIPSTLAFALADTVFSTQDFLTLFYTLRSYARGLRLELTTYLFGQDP
Sequence of Cytochrome P450 2D6 (P10635 whole entry): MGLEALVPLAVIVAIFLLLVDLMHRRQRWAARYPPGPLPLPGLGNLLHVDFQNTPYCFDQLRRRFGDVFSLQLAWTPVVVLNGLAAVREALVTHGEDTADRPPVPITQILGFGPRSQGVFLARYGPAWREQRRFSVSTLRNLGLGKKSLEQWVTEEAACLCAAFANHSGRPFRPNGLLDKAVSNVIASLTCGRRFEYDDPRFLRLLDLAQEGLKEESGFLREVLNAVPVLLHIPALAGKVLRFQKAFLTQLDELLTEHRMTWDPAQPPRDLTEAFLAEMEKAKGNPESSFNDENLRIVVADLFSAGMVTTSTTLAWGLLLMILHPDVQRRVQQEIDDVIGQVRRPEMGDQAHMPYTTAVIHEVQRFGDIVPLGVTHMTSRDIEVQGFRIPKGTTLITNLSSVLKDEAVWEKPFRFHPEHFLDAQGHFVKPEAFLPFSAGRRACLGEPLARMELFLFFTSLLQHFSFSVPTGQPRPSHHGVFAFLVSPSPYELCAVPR
Sequence of Kappa-type opioid receptor (P41145 whole entry): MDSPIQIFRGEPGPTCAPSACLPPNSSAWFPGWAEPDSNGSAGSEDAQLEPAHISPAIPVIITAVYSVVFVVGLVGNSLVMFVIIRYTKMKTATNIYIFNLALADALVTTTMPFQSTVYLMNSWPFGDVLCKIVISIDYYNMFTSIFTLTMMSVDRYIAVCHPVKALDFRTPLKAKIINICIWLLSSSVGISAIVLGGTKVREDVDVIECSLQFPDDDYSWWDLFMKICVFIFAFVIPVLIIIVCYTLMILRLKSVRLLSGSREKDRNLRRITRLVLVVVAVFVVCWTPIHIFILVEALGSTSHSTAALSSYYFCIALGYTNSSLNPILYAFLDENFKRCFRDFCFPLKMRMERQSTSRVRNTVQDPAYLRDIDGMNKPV

For the molecule `Cc1ccc(S(=O)(=O)NC(=O)NN2CC3CCCC3C2)cc1` (stereo unspecified) [GLICLAZIDE], the IC50 entry (against Adenosine receptor A1; in series [1]; in series [2]; at Cytochrome P450 2D6; against Cytochrome P450 1A2; in series [3]) was “Not Active” in each case. Moreover, in series [4], the IC50 result is “Not Active”. Besides, the Ki result (at Cytochrome P450 2D6; on Cytochrome P450 1A2; in series [3]; in series [4]) was “Not Active” throughout.
Regarding `CC(C)Cc1ccc(C(C)C(=O)O)cc1` (stereo unspecified) [IBUPROFEN], the IC50 entry (at Adenosine receptor A1; in series [1]; in series [2]; against Cytochrome P450 2D6; on Cytochrome P450 1A2; in series [3]) was “Not Active” each time. For the same molecule, in series [4], the IC50 result was “Not Active”. The Ki entry (at Cytochrome P450 2D6; on Cytochrome P450 1A2; in series [3]; in series [4]) was “Not Active” each time.
In the case of `COc1ccc2c(c1)c(CC(=O)O)c(C)n2C(=O)c1ccc(Cl)cc1` [INDOMETHACIN], the IC50 entry (on Adenosine receptor A1; in series [1]; in series [2]; at Cytochrome P450 2D6; against Cytochrome P450 1A2; in series [3]) was “Not Active” in each case. Also, the IC50 entry in series [4] is reported as “Not Active”. Besides, the Ki entry (on Cytochrome P450 2D6; on Cytochrome P450 1A2; in series [3]; in series [4]) was “Not Active” each time.
`CCc1c2c(nc3ccc(OC(=O)N4CCC(N5CCCCC5)CC4)cc13)-c1cc3c(c(=O)n1C2)COC(=O)[C@]3(O)CC` [IRINOTECAN]: the IC50 result (against Adenosine receptor A1; in series [1]; in series [2]; against Cytochrome P450 2D6; against Cytochrome P450 1A2; in series [3]) was “Not Active” in each case. In addition, the IC50 result in series [4] was “Not Active”. The Ki result (at Cytochrome P450 2D6; at Cytochrome P450 1A2; in series [3]; in series [4]) was “Not Active” each time.
Take `CC(C(=O)O)c1cccc(C(=O)c2ccccc2)c1` (stereo unspecified) [KETOPROFEN]: the IC50 entry (against Adenosine receptor A1; in series [1]; in series [2]; on Cytochrome P450 2D6; against Cytochrome P450 1A2; in series [3]) was “Not Active” throughout. Besides, the IC50 result in series [4] is “Not Active”. Further, the Ki result (at Cytochrome P450 2D6; on Cytochrome P450 1A2; in series [3]; in series [4]) was “Not Active” in each case.
For `Nc1ccn([C@@H]2CS[C@H](CO)O2)c(=O)n1` [LAMIVUDINE], the IC50 entry (against Adenosine receptor A1; in series [1]; in series [2]; against Cytochrome P450 2D6; against Cytochrome P450 1A2; in series [3]) was “Not Active” in each case. The IC50 result in series [4] is “Not Active”. The Ki entry (on Cytochrome P450 2D6; on Cytochrome P450 1A2; in series [3]; in series [4]) was “Not Active” each time.
`O=S(=O)([O-])CCS.[Na+]` [MESNA]: the IC50 result (at Adenosine receptor A1; in series [1]; in series [2]; against Cytochrome P450 2D6; on Cytochrome P450 1A2; in series [3]) was “Not Active” each time. Also, the IC50 entry in series [4] was “Not Active”. Moreover, the Ki entry (at Cytochrome P450 2D6; at Cytochrome P450 1A2; in series [3]; in series [4]) was “Not Active” in each case.
Consider `C#C[C@]1(O)CC[C@H]2[C@@H]3CCc4cc(OC)ccc4[C@H]3CC[C@@]21C` [MESTRANOL], for which the IC50 result (against Adenosine receptor A1; in series [1]; in series [2]; against Cytochrome P450 2D6; at Cytochrome P450 1A2; in series [3]) was “Not Active” throughout. The IC50 entry in series [4] is recorded as “Not Active”. The Ki entry (at Cytochrome P450 2D6; at Cytochrome P450 1A2; in series [3]; in series [4]) was “Not Active” throughout.
Turning to `Cc1ncc([N+](=O)[O-])n1CCO` [METRONIDAZOLE], the IC50 result (against Adenosine receptor A1; in series [1]; in series [2]; against Cytochrome P450 2D6; against Cytochrome P450 1A2; in series [3]) was “Not Active” each time. Besides, in series [4], the IC50 result is “Not Active”. The Ki entry (at Cytochrome P450 2D6; on Cytochrome P450 1A2; in series [3]; in series [4]) was “Not Active” each time.
On to `CC(C)(C(=O)c1cccnc1)c1cccnc1` [METYRAPONE], for which the IC50 result (on Adenosine receptor A1; in series [1]; in series [2]; against Cytochrome P450 2D6; at Cytochrome P450 1A2; in series [3]) was “Not Active” throughout. For the same molecule, the IC50 entry in series [4] is “Not Active”. In addition, the Ki entry (at Cytochrome P450 2D6; at Cytochrome P450 1A2; in series [3]; in series [4]) was “Not Active” each time.
`Oc1ccc(OCc2ccccc2)cc1` [MONOBENZONE]: the IC50 entry (against Adenosine receptor A1; in series [1]; in series [2]; against Cytochrome P450 2D6; against Cytochrome P450 1A2; in series [3]) was “Not Active” in each case. The IC50 entry in series [4] is given as “Not Active”. Also, the Ki result (on Cytochrome P450 2D6; at Cytochrome P450 1A2; in series [3]; in series [4]) was “Not Active” throughout.
Regarding `CC(C)(Oc1ccc(C2CCCc3ccccc32)cc1)C(=O)O` (stereo unspecified) [NAFENOPIN], the IC50 result (on Adenosine receptor A1; in series [1]; in series [2]; against Cytochrome P450 2D6; against Cytochrome P450 1A2; in series [3]) was “Not Active” throughout. In series [4], the IC50 result was “Not Active”. The Ki result (on Cytochrome P450 2D6; at Cytochrome P450 1A2; in series [3]; in series [4]) was “Not Active” in each case.
Regarding `CC(C)[C@H]1CC[C@H](C(=O)N[C@H](Cc2ccccc2)C(=O)O)CC1` [NATEGLINIDE], the IC50 result (against Adenosine receptor A1; in series [1]; in series [2]; at Cytochrome P450 2D6; at Cytochrome P450 1A2; in series [3]) was “Not Active” each time. Also, the IC50 result in series [4] is reported as “Not Active”. Further, the Ki entry (on Cytochrome P450 2D6; on Cytochrome P450 1A2; in series [3]; in series [4]) was “Not Active” throughout.
For the molecule `CCN[C@@H]1C[C@H](N)[C@@H](O[C@H]2OC(CN)=CC[C@H]2N)[C@H](O)[C@H]1O[C@H]1OC[C@](C)(O)[C@H](NC)[C@H]1O` [NETILMICIN], the IC50 result (at Adenosine receptor A1; in series [1]; in series [2]; against Cytochrome P450 2D6; against Cytochrome P450 1A2; in series [3]) was “Not Active” each time. Also, the IC50 entry in series [4] is on record as “Not Active”. Also, the Ki result (on Cytochrome P450 2D6; on Cytochrome P450 1A2; in series [3]; in series [4]) was “Not Active” each time.
`CCOC(=O)C1=C(C)NC(C)=C(C(=O)OC)C1c1cccc([N+](=O)[O-])c1` (stereo unspecified) [NITRENDIPINE]: the IC50 result (against Adenosine receptor A1; in series [1]; in series [2]; on Cytochrome P450 2D6; at Cytochrome P450 1A2; in series [3]) was “Not Active” throughout. Further, the Ki result (on Cytochrome P450 2D6; at Cytochrome P450 1A2; in series [3]) was “Not Active” in each case. Moreover, the pIC50 in series [4] (read-out: IC50) is 9.42. In addition, the negative-log Ki (pKi) in series [4] (read-out: Ki) is 9.61.
In the case of `C#C[C@]1(OC(C)=O)CC[C@H]2[C@@H]3CCC4=CC(=O)CC[C@@H]4[C@H]3CC[C@@]21C` [NORETHINDRONE ACETATE], the IC50 result (at Adenosine receptor A1; in series [1]; in series [2]; against Cytochrome P450 2D6; against Cytochrome P450 1A2; in series [3]) was “Not Active” throughout. In addition, in series [4], the IC50 result is given as “Not Active”. Further, the Ki result (on Cytochrome P450 2D6; on Cytochrome P450 1A2; in series [3]; in series [4]) was “Not Active” throughout.
